Results published in ChEMBL document CHEMBL6103650, “Hybrid Molecules of Benzothiazole and Hydroxamic Acid as Dual-Acting Biofilm Inhibitors with Antibacterial Synergistic Effect against Pseudomonas aeruginosa Infections” (J Med Chem, 2025).
Calls of active or inactive are those of the source. No cut-off for these calls is given here.

Columns and labels:
[1] = Toxicity in BALB/c mouse wound infection model assessed as liver damage measured for 9 days by H and E staining based analysis; type: tissue-based; conditions: in vivo, 216 h, time 9 day
[2] = Toxicity in BALB/c mouse assessed as spleen damage by H and E staining based analysis; type: tissue-based; conditions: in vivo
Pseudomonas aeruginosa [3] = assay: Antivirulence activity in Pseudomonas aeruginosa PAO1 assessed as reduction in extracellular polysaccharides production incubated for 24 hrs; type: functional, organism-based; conditions: dose 0.3125-10 µM
[4] = Toxicity in zebrafish assessed as survival rate at <100 uM measured upto 120 hrs; set-up: species or system Danio rerio; conditions: in vivo
Pseudomonas aeruginosa [5] = assay: Antibiofilm activity against Pseudomonas aeruginosa PAO1 assessed as inhibition of biofilm formation incubated for 24 hrs by crystal violet staining based analysis; type: functional, organism-based
Pseudomonas aeruginosa [6] = assay: Antibiofilm activity against Pseudomonas aeruginosa PAO1 assessed as decrease in colony forming counts incubated for 24 hrs by crystal violet staining based analysis; type: functional, organism-based; conditions: dose 0.15625-2.5 µM
[7] = Toxicity in BALB/c mouse assessed as lung damage by H and E staining based analysis; conditions: in vivo
Pseudomonas aeruginosa [8] = assay: Anti-motility activity against Pseudomonas aeruginosa PAO1 assessed as reduction in swarming motility at 10 uM incubated for 24 hrs relative to control; type: functional; set-up: scale not given: the % may be the effect or the level left
Pseudomonas aeruginosa [9] = assay: Antibiofilm activity against Pseudomonas aeruginosa PAO1 harboring pvds-deficient mutant assessed as inhibition of biofilm formation at 0.3125 to 10 uM incubated for 24 hrs by crystal violet staining based analysis; type: functional, organism-based; conditions: dose 0.3125-10 µM
Pseudomonas aeruginosa [10] = assay: Antibiofilm activity against Pseudomonas aeruginosa PAO1 assessed as reduction in iron content at 10 uM incubated for 24 hrs by cell total iron colorimetric assay relative to control; type: functional; set-up: scale not given: the % may be the effect or the level left
Pseudomonas aeruginosa [11] = assay: Antibiofilm activity against Pseudomonas aeruginosa PA1121 assessed as inhibition of biofilm formation incubated for 24 hrs by crystal violet staining based analysis; type: functional, organism-based
Pseudomonas aeruginosa [12] = assay: Antibacterial activity against Pseudomonas aeruginosa PAO1 infected in BALB/c mouse wound infection model assessed as reduction in wound area at 2.5 uM administered to wound once a day for 3 days and measured after 9 days in dropwise manner; type: functional; set-up: scale not given: the % may be the effect or the level left; conditions: time 12 day
[13] = Toxicity in BALB/c mouse assessed as kidney damage by H and E staining based analysis; conditions: in vivo
RAW264.7 = assay: Cytotoxicity against mouse RAW264.7 cells assessed as reduction in cell viability at < 100 uM incubated for 24 hrs by MTT assay; type: toxicity, cell-based; conditions: raw264.7, 24 h
Pseudomonas aeruginosa [14] = assay: Antibacterial activity against Pseudomonas aeruginosa PAO1 infected in BALB/c mouse wound infection model assessed as bacterial survival rate in wound at 1 mg/mL administered to wound once a day for 3 days in dropwise manner; type: functional; conditions: PAO1, 72 h, time 3 day
Pseudomonas aeruginosa [15] = assay: Antibiofilm activity against Pseudomonas aeruginosa PAO1 assessed as inhibition of biofilm formation at 0.15625 to 2.5 uM incubated for 24 hrs by crystal violet staining based analysis; type: functional, organism-based; conditions: dose 0.15625-2.5 µM

COc1ccc2nc(NCC(=O)NCCCCC(=O)NO)sc2c1
Activity [1]: Non-toxic
Activity [2]: Non-toxic
Activity (Pseudomonas aeruginosa [3]): Dose-dependent-effect
Activity [4]: Non-toxic
Activity (Pseudomonas aeruginosa [5]): Dose-dependent-effect
IC50 (Pseudomonas aeruginosa [5]; PAO1, 24 h): 400 nM
Activity (Pseudomonas aeruginosa [6]): Dose-dependent-effect
Activity [7]: Non-toxic
Activity (Pseudomonas aeruginosa [8]): 84%
Activity (Pseudomonas aeruginosa [9]): No effect
Activity (Pseudomonas aeruginosa [10]): 57%
Activity (Pseudomonas aeruginosa [11]): Active
Activity (Pseudomonas aeruginosa [12]): 55%
Activity [13]: Non-toxic
Activity (RAW264.7): Non-toxic
survival at 1000 µg/mL (Pseudomonas aeruginosa [14]): 0%
Activity (Pseudomonas aeruginosa [15]): inactive
